The results in this text go back to patent US7592424B2, “Ion channel-like polypeptide and use thereof” (Kyoto University, priority 2004, dated 2009).

The test has as its target Ciona intestinalis Ci-VSP cytoplasmic domain (phosphatase domain, residues 248-576 of Ci-VSP, SEQ ID NO: 2), wild type, GST fusion protein (GST-Ci-VSP) (Ciona intestinalis, UniProt Q4W8A1). As to the kind of experiment: Malachite green assay of phosphoinositide phosphatase activity at various PIP3 concentrations, Michaelis-Menten fit. The format is biochemical. The settings on record: substrate PIP3, initial rate V0 at t=0, Michaelis-Menten fit (FIG. 4c). Here is the method: To express N-terminal fused protein of the cytoplasmic domain of Ci-VSP with the GST gene, the cDNA encoding residues 248-576 of Ci-VSP was subcloned into the EcoRI-XhoI site of pGEX4T3 (Amersham Pharmacia). GST-fused protein was expressed and purified from E. coli JM109 with glutathione-sepharose CL-4B (Amersham Pharmacia). Phosphatase activity of Ci-VSP was measured with the methods previously adopted for PTEN phosphatase.
To see whether the Ci-VSP has phosphatase activity that uses PI(3, 4, 5)P3 as a substrate, a fusion protein of GST and the whole C-terminal cytoplasmic region of Ci-VSP was synthesized. FIG. 3b represents phosphoinositide phosphatase activity of the fusion protein of glutathione s-transferase and the phosphatase-like domain of Ci-VSP by a malachite green assay using PI(3, 4, 5)P3 as a substrate. […] BIOMOL GREEN™ reagent (Biomol, Plymouth Meeting, Pa.) was added to the sample and […] was measured by using H2O as a reference. […]
Enzyme activity of Ci-VSP was examined with thin layer chromatography (TLC). […] Where there is enzyme activity using PI(3, 4, 5)P3 as a substrate, the degraded product PIP2(NBD6-diC6-PI(4, 5)P2) is detected. […]
Malachite green imparts pale yellow in the absence of inorganic phosphate. […] Thus, by measuring absorbance of malachite green at 620 nm, the inorganic phosphate that is generated by the degradation of PI(3, 4, 5)P3 to PI(4, 5)P2 can be quantified. […]

Chain of Ciona intestinalis Ci-VSP cytoplasmic domain (phosphatase domain, residues 248-576 of Ci-VSP, SEQ ID NO: 2), wild type, GST fusion protein (GST-Ci-VSP) (Q4W8A1 entry or part of it): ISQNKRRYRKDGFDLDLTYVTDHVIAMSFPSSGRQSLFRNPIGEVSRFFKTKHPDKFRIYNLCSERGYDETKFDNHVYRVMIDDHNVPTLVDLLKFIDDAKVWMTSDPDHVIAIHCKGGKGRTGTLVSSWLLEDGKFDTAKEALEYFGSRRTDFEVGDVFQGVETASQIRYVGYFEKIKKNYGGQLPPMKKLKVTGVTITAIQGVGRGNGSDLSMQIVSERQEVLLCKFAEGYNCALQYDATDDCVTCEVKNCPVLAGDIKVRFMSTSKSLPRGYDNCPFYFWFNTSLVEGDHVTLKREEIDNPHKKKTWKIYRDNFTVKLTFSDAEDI

With PIP3, the “Vmax (maximum rate)” value turned out to be 0.292 nmol/min/µg. Besides, the Km (read-out: Km (substrate concentration required for 1/2 Vmax)) is 36 µM.
